Reference: PubChem BioAssay (NCI)
“And” between values parts separate entries of the source, which are not always exact repeats. Equal entries are not always repeated.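 How tested: cells in 96-well plates exposed to compound for 48 hours at five concentrations. Abbreviation: GI50, concentration required for 50% inhibition of growth. Definition used: TGI = concentration required for complete inhibition of growth.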

Assays:
Test in all cases: growth of human tumour cells (NCI), 48 h
HCC-2998 colon = system: HCC-2998 colon
COLO 205 colon = system: COLO 205 colon
HCT-15 colon = system: HCT-15 colon
ACHN renal = system: ACHN renal
T-47D breast = system: T-47D breast
NCI-H226 lung = system: NCI-H226 lung
HCT-116 colon = system: HCT-116 colon
SNB-19 CNS = system: SNB-19 CNS
DU-145 prostate = system: DU-145 prostate
OVCAR-4 ovarian = system: OVCAR-4 ovarian

| SMILES | GI50 (HCC-2998 colon) | TGI (HCC-2998 colon) | GI50 (COLO 205 colon) | TGI (COLO 205 colon) | GI50 (HCT-15 colon) | TGI (HCT-15 colon) | GI50 (ACHN renal) | TGI (ACHN renal) | GI50 (T-47D breast) | TGI (T-47D breast) | GI50 (NCI-H226 lung) | TGI (NCI-H226 lung) | GI50 (HCT-116 colon) | TGI (HCT-116 colon) | GI50 (SNB-19 CNS) | TGI (SNB-19 CNS) | GI50 (DU-145 prostate) | TGI (DU-145 prostate) | GI50 (OVCAR-4 ovarian) | TGI (OVCAR-4 ovarian) |
| --- | --- | --- | --- | --- | --- | --- | --- | --- | --- | --- | --- | --- | --- | --- | --- | --- | --- | --- | --- | --- |
| S=c1nc(-c2ccccc2)oc(=NC2CCCCC2)n1C1CCCCC1 | 3.79 µM | 13.7 µM | 2.11 µM | 4.22 µM | 3.35 µM | 13.5 µM | 4.14 µM | 14.2 µM | 3.85 µM | 21.4 µM | 17.5 µM | 37.9 µM | 4.19 µM | 17.1 µM | 5.05 µM | 17.4 µM | 3.26 µM | 10.3 µM | 5.56 µM | 61 µM |
| COc1ccc2c(c1)CCC1C2CC[C@@]2(C)C1CC[C@@]2(O)CNC(=O)/C=C/c1ccc(O)c(OC)c1 (some centres undefined) | 17.7 µM | 33.7 µM | 14 µM | 35.3 µM | 11.5 µM | 33.1 µM | 17.5 µM | 46.7 µM | 9.12 µM | > 100 µM | 22.5 µM | 74.6 µM | 19 µM | > 100 µM | 27.8 µM | > 100 µM | 36.6 µM | > 100 µM | 14.9 µM | > 100 µM |
| CC(C)C[C@H](NC(=O)[C@H](CCc1ccccc1)NC(=O)CN1CCOCC1)C(=O)N[C@@H](Cc1ccccc1)C(=O)N[C@@H](CC(C)C)C(=O)[C@@]1(C)CO1 | < 0.0118 µM | 0.0227 µM | < 0.0165 µM | 0.172 µM | 0.083 µM | 1.6 µM | 0.0366 µM | 2.66 µM | < 0.0128 µM | 0.028 µM | < 0.0122 µM | < 0.0175 µM | < 0.01 µM | < 0.0125 µM | < 0.0164 µM | > 100 µM | 0.0183 µM | 1.37 µM | < 0.0117 µM |  |
| CCN1CCN(c2nc(NNC(=O)Cc3ccccc3)nc(N3CCN(C(c4ccccc4)c4ccccc4)CC3)n2)CC1 | 1.71 µM | 3.39 µM | 1.88 µM | 3.82 µM | 1.9 µM | 3.76 µM | 1.65 µM | 3.07 µM | 1.85 µM | 4.8 µM | 16.9 µM | 42.7 µM | 1.72 µM | 3.13 µM | 3.35 µM | 11.7 µM | 2.73 µM | 7.2 µM | 4.71 µM | 17.5 µM |
| Nc1[nH]c(=O)ncc1F |  | > 100 µM |  | > 100 µM |  | > 100 µM |  | > 100 µM |  | > 100 µM |  | > 100 µM |  | > 100 µM |  | > 100 µM |  | > 100 µM |  | > 100 µM |
| CCCS(=O)(=O)Nc1ccc(F)c(C(=O)c2c[nH]c3ncc(-c4ccc(Cl)cc4)cc23)c1F | 5.59 µM and 10 µM | 17.9 µM and > 10 µM | 0.0487 µM and 0.0423 µM | 11.2 µM and > 5.32 µM | 4.45 µM and 4.1 µM | 17.7 µM and > 10 µM | 3.92 µM and 4.77 µM | 15.9 µM and > 10 µM | 5.34 µM and 5.13 µM | 24.8 µM and > 10 µM | 9.23 µM and > 5.91 µM | 36.7 µM and > 10 µM | 4.46 µM and 5.81 µM | 16.9 µM and > 10 µM | 6.56 µM and > 10 µM | 29.6 µM and > 10 µM | 5.62 µM and 7.49 µM | 19.7 µM and > 10 µM | 6.13 µM and > 7.33 µM | 25.7 µM and > 10 µM |
